We go through 2 molecules from ChEMBL document CHEMBL3228010, “Potential antitumor agents. 29. Quantitative structure-activity relationships for the antileukemic bisquaternary ammonium heterocycles” (J Med Chem, 1979).

In data set [1] the test system is L1210. The experiment in a line: Antitumor activity against mouse L1210 cells […] in ip dosed C3H X DBA2 F1 hybrid mouse on day 0 and dosed once daily on days 1 to 5 assessed as increase in life span relative to control. The data set is classed as functional.
The nature of data set [2]: Displacement of ethidium from poly[d(A-T)]-poly[d(A-T)] DNA by fluorimetric method.
Data set [3] in a line: Displacement of ethidium from poly[d(A)]-poly[d(T)] DNA (unknown origin) by fluorimetric method.
The species entered for the next data set is Bos taurus. The experiment in a line: Displacement of ethidium from calf thymus DNA by fluorimetric method.
Data set [4] is described as follows: Displacement of ethidium from poly[d(G-C)]-poly[d(G-C)] DNA (unknown origin) by fluorimetric method.
Data set [5] concerns L1210. Briefly: Antitumor activity against mouse L1210 cells […] in ip dosed C3H X DBA2 F1 hybrid mouse on day 0 and dosed at LD10 level once daily on days 1 to 5 assessed as increase in life span relative to control. The data set is classed as functional.
In the next data set the test system is Mus musculus. The experiment in a line: Toxicity in ip dosed C3H X DBA2 F1 hybrid mouse […] with mouse L1210 cells on day 0 and dosed once daily on days 1 to 5 measured after 50 days. The following applies: in vivo, 1200 h. The data set is classed as organism-based.
Data set [6] in a line: Lipophilic-hydrophilic balance, Rm of the compound by partition chromatography. The data set is classed as physicochemical.

As for `C[n+]1ccc(Nc2ccc(NC(=O)c3ccc(Nc4cc[n+](C)c5ccccc45)cc3N)cc2N)cc1.[I-].[I-]`, the D40 in the data set with L1210 [1] was 15 mg/kg. The C50 in data set [2] was 0.79 µM; in data set [3] it was 0.12 µM; in the data set listed under Bos taurus, 1.76 µM; in data set [4] it was 3.17 µM. Besides, in the data set with L1210 [5], the “log(ILSmax)” value stood at 1.78. The molecule further showed an LD10 in the data set on Mus musculus of 18 mg/kg. The molecule further had a Rm in data set [6] of 0.08.

As for `C[n+]1ccc(Nc2ccc(NC(=O)c3ccc(Nc4cc[n+](C)c5ccccc45)cc3)cc2N)cc1.[I-].[I-]`, the D40 in the data set with L1210 [1] stood at 2.8 mg/kg. Also, the C50 in data set [2] was determined as 0.43 µM; in data set [3] it was 0.052 µM; in the data set listed under Bos taurus it was 2.25 µM; in data set [4], 4.76 µM. Also, the “log(ILSmax)” value in the data set on L1210 [5] worked out at 1.85. The LD10 in the data set with Mus musculus amounted to 8 mg/kg. The Rm in data set [6] turned out to be 0.24.
